Legend:
Assay type in all cases: in vivo
Conditions in all cases: 250 g/ha, evaluated after 13 days
Setaria faberi (SETFA) [1] = assay: Pre-emergence Test, glasshouse, SETFA
Experimental: (§1) Seeds of a variety of test species are sown in standard soil in pots Amaranthus retoflexus (AMARE), Echinochloa crus-galli (ECHCG), Setaria faberi (SETFA)). After cultivation for one day (pre-emergence) or after 8 days cultivation (post-emergence) under controlled conditions in a glasshouse (at 24/16° C., day/night; 14 hours light; 65% humidity), the plants are sprayed with an aqueous spray solution derived from the formulation of the technical active ingredient in acetone/water (50:50) solution containing 0.5% Tween™ 20 (polyoxyethelyene sorbitan monolaurate, CAS RN 9005-64-5). Compounds are applied at 250 g/ha unless otherwise stated. The test plants are then grown in a glasshouse under controlled conditions in a glasshouse (at 24/16° C., day/night; 14 hours light; 65% humidity) and watered twice daily. After 13 days for pre- and post-emergence, the test is evaluated for the percentage damage caused to the plant. The biological activities are shown in the following table on a five-point scale (5=81-100%; 4=61-80%; 3=41-60%; 2=21-40%; 1=0-20%).

Setaria faberi (SETFA) [2] = assay: Post-emergence Test, glasshouse, SETFA
Experimental: as §1

[3] = tested on: Amaranthus retoflexus (AMARE); assay: Post-emergence Test, glasshouse, AMARE
Experimental: as §1

IPOHE [4] = assay: Pre-emergence Test, glasshouse, IPOHE
Experimental: as §1

[5] = tested on: Echinochloa crus-galli (ECHCG); assay: Pre-emergence Test, glasshouse, ECHCG
Experimental: as §1

[6] = tested on: Amaranthus retoflexus (AMARE); assay: Pre-emergence Test, glasshouse, AMARE
Experimental: as §1

ABUTH [7] = assay: Pre-emergence Test, glasshouse, ABUTH
Experimental: as §1

ABUTH [8] = assay: Post-emergence Test, glasshouse, ABUTH
Experimental: as §1

IPOHE [9] = assay: Post-emergence Test, glasshouse, IPOHE
Experimental: as §1

[10] = tested on: Echinochloa crus-galli (ECHCG); assay: Post-emergence Test, glasshouse, ECHCG
Experimental: as §1

Q: For `FC(F)(F)CCCn1ccc2cccc(Oc3ncc(Cl)cn3)c21` [Compound 1.003], which “percentage damage caused to the plant, five-point scale, SETFA” value (from here on “percentage damage caused … SETFA”) (Setaria faberi (SETFA) [1]) is on record?
A: The value was 1 (1=0-20%).

Q: What about the “percentage damage caused … SETFA” value (Setaria faberi (SETFA) [2]) of the same compound?
A: Its value is 1 (1=0-20%).

Q: And the “percentage damage caused to the plant, five-point scale, AMARE” value (from here on “percentage damage caused … AMARE”) [3]?
A: Its value is 3 (3=41-60%).

Q: What about the “percentage damage caused to the plant, five-point scale, IPOHE” value (from here on “percentage damage caused … IPOHE”) (IPOHE [4]) of the same compound?
A: Its value is 1 (1=0-20%).

Q: And the “percentage damage caused to the plant, five-point scale, ECHCG” value (from here on “percentage damage caused … ECHCG”) [5]?
A: The value was 1 (1=0-20%).

Q: And the “percentage damage caused … AMARE” value [6]?
A: The value was 1 (1=0-20%).

Q: And the “percentage damage caused to the plant, five-point scale, ABUTH” value (from here on “percentage damage caused … ABUTH”) (ABUTH [7])?
A: The value was 1 (1=0-20%).

Q: And the “percentage damage caused … ABUTH” value (ABUTH [8])?
A: Its value is 2 (2=21-40%).

Q: And the “percentage damage caused … IPOHE” value (IPOHE [9])?
A: The value was 2 (2=21-40%).

Q: What about the “percentage damage caused … ECHCG” value [10] of the same compound?
A: The value was 1 (1=0-20%).

Q: How did the “percentage damage caused … SETFA” value (Setaria faberi (SETFA) [1]) turn out when `CCCCCn1nc(Cl)c2cccc(Oc3ncc(Cl)cn3)c21` [Compound 1.055] was run?
A: Its value is 4 (4=61-80%).

Q: What about the “percentage damage caused … SETFA” value (Setaria faberi (SETFA) [2]) of the same compound?
A: The value was 3 (3=41-60%).

Q: What about the “percentage damage caused … AMARE” value [3] of the same compound?
A: Its value is 4 (4=61-80%).

Q: What about the “percentage damage caused … IPOHE” value (IPOHE [4]) of the same compound?
A: The value was 1 (1=0-20%).

Q: What about the “percentage damage caused … ECHCG” value [5] of the same compound?
A: The value was 4 (4=61-80%).

Q: And the “percentage damage caused … AMARE” value [6]?
A: The value was 4 (4=61-80%).

Q: What about the “percentage damage caused … ABUTH” value (ABUTH [7]) of the same compound?
A: Its value is 1 (1=0-20%).

Q: What about the “percentage damage caused … ABUTH” value (ABUTH [8]) of the same compound?
A: The value was 3 (3=41-60%).

Q: And the “percentage damage caused … IPOHE” value (IPOHE [9])?
A: The value was 2 (2=21-40%).

Q: What about the “percentage damage caused … ECHCG” value [10] of the same compound?
A: The value was 3 (3=41-60%).

Q: With `FC(F)(F)CCn1ncc2cccc(Oc3ncc(Cl)cn3)c21` [Compound 1.042] as the compound, how does the “percentage damage caused … SETFA” value (Setaria faberi (SETFA) [1]) read?
A: Its value is 5 (5=81-100%).

Q: And the “percentage damage caused … SETFA” value (Setaria faberi (SETFA) [2])?
A: The value was 4 (4=61-80%).

Q: What about the “percentage damage caused … AMARE” value [3] of the same compound?
A: The value was 4 (4=61-80%).

Q: And the “percentage damage caused … IPOHE” value (IPOHE [4])?
A: Its value is 1 (1=0-20%).

Q: And the “percentage damage caused … ECHCG” value [5]?
A: The value was 5 (5=81-100%).

Q: What about the “percentage damage caused … AMARE” value [6] of the same compound?
A: Its value is 5 (5=81-100%).

Q: And the “percentage damage caused … ABUTH” value (ABUTH [7])?
A: The value was 4 (4=61-80%).

Q: And the “percentage damage caused … ABUTH” value (ABUTH [8])?
A: The value was 4 (4=61-80%).

Q: What about the “percentage damage caused … IPOHE” value (IPOHE [9]) of the same compound?
A: The value was 2 (2=21-40%).

Q: And the “percentage damage caused … ECHCG” value [10]?
A: Its value is 4 (4=61-80%).

Q: `CC(C)=CCn1nc(Cl)c2cccc(Oc3ncc(Cl)cn3)c21` [Compound 1.067] was tested. Which “percentage damage caused … SETFA” value (Setaria faberi (SETFA) [1]) did it give?
A: Its value is 4 (4=61-80%).

Q: And the “percentage damage caused … SETFA” value (Setaria faberi (SETFA) [2])?
A: The value was 3 (3=41-60%).

Q: And the “percentage damage caused … AMARE” value [3]?
A: Its value is 4 (4=61-80%).

Q: What about the “percentage damage caused … IPOHE” value (IPOHE [4]) of the same compound?
A: Its value is 1 (1=0-20%).

Q: What about the “percentage damage caused … ECHCG” value [5] of the same compound?
A: The value was 3 (3=41-60%).

Q: And the “percentage damage caused … AMARE” value [6]?
A: The value was 3 (3=41-60%).

Q: What about the “percentage damage caused … ABUTH” value (ABUTH [7]) of the same compound?
A: Its value is 2 (2=21-40%).

Q: And the “percentage damage caused … ABUTH” value (ABUTH [8])?
A: Its value is 3 (3=41-60%).

Q: What about the “percentage damage caused … IPOHE” value (IPOHE [9]) of the same compound?
A: Its value is 2 (2=21-40%).

Q: What about the “percentage damage caused … ECHCG” value [10] of the same compound?
A: Its value is 3 (3=41-60%).

Q: Which “percentage damage caused … SETFA” value (Setaria faberi (SETFA) [1]) does the source give for `COc1nn(CCCC(F)(F)F)c2c(Oc3ncc(Cl)cn3)cccc12` [Compound 1.033, 7-(5-chloropyrimidin-2-yl)oxy-3-methoxy-1-(4,4,4-trifluorobutyl)indazole] here?
A: The value was 1 (1=0-20%).

Q: What about the “percentage damage caused … SETFA” value (Setaria faberi (SETFA) [2]) of the same compound?
A: The value was 1 (1=0-20%).

Q: And the “percentage damage caused … AMARE” value [3]?
A: Its value is 1 (1=0-20%).

Q: What about the “percentage damage caused … IPOHE” value (IPOHE [4]) of the same compound?
A: Its value is 1 (1=0-20%).

Q: What about the “percentage damage caused … ECHCG” value [5] of the same compound?
A: The value was 1 (1=0-20%).

Q: And the “percentage damage caused … AMARE” value [6]?
A: Its value is 2 (2=21-40%).

Q: And the “percentage damage caused … ABUTH” value (ABUTH [7])?
A: Its value is 1 (1=0-20%).

Q: What about the “percentage damage caused … ABUTH” value (ABUTH [8]) of the same compound?
A: The value was 1 (1=0-20%).

Q: What about the “percentage damage caused … IPOHE” value (IPOHE [9]) of the same compound?
A: Its value is 1 (1=0-20%).

Q: And the “percentage damage caused … ECHCG” value [10]?
A: Its value is 1 (1=0-20%).

Q: How did the “percentage damage caused … SETFA” value (Setaria faberi (SETFA) [1]) turn out when `FC(F)(F)CCCn1nc(Cl)c2c(Cl)c(Br)cc(Oc3ncc(Cl)cn3)c21` [Compound 1.019] was run?
A: The value was 1 (1=0-20%).

Q: And the “percentage damage caused … SETFA” value (Setaria faberi (SETFA) [2])?
A: The value was 2 (2=21-40%).

Q: And the “percentage damage caused … AMARE” value [3]?
A: Its value is 4 (4=61-80%).

Q: What about the “percentage damage caused … IPOHE” value (IPOHE [4]) of the same compound?
A: The value was 1 (1=0-20%).

Q: And the “percentage damage caused … ECHCG” value [5]?
A: Its value is 1 (1=0-20%).

Q: What about the “percentage damage caused … AMARE” value [6] of the same compound?
A: Its value is 1 (1=0-20%).

Q: And the “percentage damage caused … ABUTH” value (ABUTH [7])?
A: Its value is 1 (1=0-20%).

Q: And the “percentage damage caused … ABUTH” value (ABUTH [8])?
A: Its value is 1 (1=0-20%).

Q: And the “percentage damage caused … IPOHE” value (IPOHE [9])?
A: The value was 1 (1=0-20%).

Q: And the “percentage damage caused … ECHCG” value [10]?
A: The value was 2 (2=21-40%).

Reference: patent US20230002357A1, “7-PYRIMIDINE-2-YL-OXY-INDAZOLE DERIVATIVES AND THEIR USE AS HERBICIDES” (SYNGENTA CROP PROTECTION AG, priority 2019, published 2023)
